From ChEMBL document CHEMBL1159249, “Malyngamide H, an ichthyotoxic amide possessing a new carbon skeleton from the Caribbean cyanobacterium Lyngbya majuscula” (J Nat Prod, 1995)
≈ marks a conversion by molar mass, not a printed value.

What was measured:
Assay type in all cases: organism-based; call rule not given here
Carassius auratus = test: Ichthyotoxicity in gold fish assessed as inability to swim after 1 hr
[1] = Ichthyotoxicity in gold fish assessed as death after 1 hr; conditions: carassius auratus, in vivo
Artemia = test: Toxicity in brine shrimp; conditions: in vivo

Q: For `C=C(CCNC(=O)CC/C=C/C[C@H](CCCCCCC)OC)[C@@]12O[C@@H]1CC=C(C)C2=O` [MALYNGAMIDE H], which EC50 (Carassius auratus) is on record?
A: The EC50 was 2 µg/mL (≈ 4.63 µM).

Q: And the LC50 at 1 h [1]?
A: The LC50 at 1 h was 5 µg/mL (≈ 11.6 µM).

Q: What about the Activity (Artemia) of the same molecule?
A: The Activity was “Not Active”.
